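Cultured in 96-well plates, cells were exposed to test compound for 48 hours across five concentrations. GI50: concentration for 50% inhibition of growth. TGI marks complete inhibition of growth.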
Tests used:
Assay in all cases: growth of human tumour cells (NCI), 48 h
[1] = tested on: BT-549 breast
[2] = tested on: NCI-H23 lung
[3] = tested on: NCI/ADR-RES ovarian
[4] = tested on: ACHN renal
[5] = tested on: SF-268 CNS
[6] = tested on: M14 melanoma
[7] = tested on: SK-MEL-2 melanoma
[8] = tested on: MOLT-4 leukemia

SMILES	GI50 [1] [µM]	TGI [1] [µM]	GI50 [2] [µM]	TGI [2] [µM]	GI50 [3] [µM]	TGI [3] [µM]	GI50 [4] [µM]	TGI [4] [µM]	GI50 [5] [µM]	TGI [5] [µM]	GI50 [6] [µM]	TGI [6] [µM]	GI50 [7] [µM]	TGI [7] [µM]	GI50 [8] [µM]	TGI [8] [µM]
CCC(C)C1NC(=O)c2nc(oc2-c2ccccc2)-c2csc(n2)-c2csc(n2)-c2nc(oc2C)-c2coc(n2)CNC(=O)C(C(C)CC)NC1=O (centres undefined)	0.0659	0.204	0.04	0.155	0.278	2.38	0.0188	0.114	0.0249	0.154						
COc1cc2c3c(cccc3c1)C(=O)N(CCN1CCCC1)C2=O	2.95	8.33	2.49	8.21	2.25	8.04	0.764	> 100	2.48	9.06	2.38	5.66	3.14	6.61	3.09	> 100
Cc1nn(-c2ccc(F)cc2)c2ncnc(Nc3ccc(NC(=O)Nc4ccc(Cl)c(C(F)(F)F)c4)cc3)c12	2.39	8.48	1.91	4.6	2.43	10.9	1.75	5.62	3.55	21.8	3.03	11.6	2.37	5.66	2.67	22.2
CC(=O)OCC1OC(O[C@@H]2C[C@H]3C(C)(C)[C@H](OC(C)=O)CC[C@]3(C)[C@H]3CCC4=C([C@@H](C)C[C@@H](O)[C@H](O)C(C)(C)O)CC[C@@]4(C)[C@@]32C)C(O)C(O)C1O (some centres undefined)	15.4	28.7	16.7	30.4	20.4	43.5	17.8	31.9		27.7	17.3	31.4	16.3	30.3	13.3	35.3
C#Cc1cnc(=O)n(C2CC(O)C(CO)O2)c1 (centres undefined)	> 100	> 100	> 100	> 100	> 100	> 100	> 100	> 100	> 100	> 100	> 100	> 100	> 100	> 100	98.9	> 100
COc1cc2ncn(-c3cc(OCc4ccccc4Cl)c(C(N)=O)s3)c2cc1OC	1.41	> 17	0.202	4.68	0.22	> 10.3	1.58	> 25	0.187	> 13	0.164	> 25	1.5	> 15.9	0.118	> 25
COc1cc(C(=O)NC2c3ccccc3-c3ccccc32)c(N)cc1OCc1ccccc1	17	42.2	30.6	> 100	35.3	> 100	23	> 92.3	16.8	> 62.1	47	> 100	33.7	98.9	> 78.4	> 100
CC(CO)(CO)N=Cc1cc(I)cc(I)c1O		36.4		58.7		63.2		69.9		36.5		39.3		27.4		47.5
COc1ccc(-c2cc(-c3cc(Cl)ccc3Cl)nc3[nH]c(-c4cc(F)c(Cl)cc4Cl)cc(=O)c23)cc1	29.6	> 100	14.7	55.8	4.95	23.2	19.9	69	> 100	> 100	13.5	35.8	64.8	> 100	24.2	68.6
O=C(NNc1nc2c(F)cccc2n2cccc12)c1cnccn1	0.671	50.8	0.905	> 69.8	0.327	23.3	0.25	36	0.484	> 67.7	0.269	11.7	1.4	37	0.302	> 100
NC(CO)Cc1cnc[nH]1 (centres undefined)		> 100	> 100	> 100	> 100	> 100	> 100	> 100	> 100	> 100		> 100	> 100	> 100	> 100	> 100
CC1(C)N=C(N)N=C(N)N1c1ccc(CCCCc2ccc(S(=O)(=O)F)cc2)cc1	7.97	20.9	2.6	24.8	> 90.2	> 100	4.68	> 100	0.704	16.9	1.16	23.3	4.91	21.8	1.41	24.3
NC(N)=N/N=C(/c1ccccc1)c1ccc(F)cc1	0.551	2.85	0.403	8.94	0.766	4.19	0.75	16.4	0.543	14.4	0.209	0.506	0.429	11.3	2.67	> 38.1
CN(C)CC(=O)N1CCC(c2ccc(NC(=O)c3ncc(C#N)[nH]3)c(C3=CCCCC3)c2)CC1	4.52	16.1	5.51	19.5	14.8	33.8	5.42	17.8	10.4	24.2	2.21	4.97	6.83	20.3	3.72	12.7
N#Cc1c(-c2cccs2)c2c(=S)[nH]c(=S)[nH]c2[nH]c1=S	23.5	56.2			62	99.3	23.8	67.6	32.4	67.2	57.5	> 100	32.9	80.9	14.3	42.7
Cc1cc2nc3c4cc(Cl)ccc4n(CCN(C)C)c3nc2cc1C	2.53	8.19	1.65	3.95	1.07	5.04	0.66	2.01	1.93	5.29	1.49	2.93	2.08	4.45	0.586	3.44

SMILES	GI50 [1] [µM]	TGI [1] [µM]	GI50 [2] [µM]	TGI [2] [µM]	GI50 [3] [µM]	TGI [3] [µM]	GI50 [4] [µM]	TGI [4] [µM]	GI50 [5] [µM]	TGI [5] [µM]	GI50 [6] [µM]	TGI [6] [µM]	GI50 [7] [µM]	TGI [7] [µM]	GI50 [8] [µM]	TGI [8] [µM]
O=C(c1ccc2ccccc2c1)c1c(C(F)(F)F)n([O-])c2cc(Cl)c(Cl)cc2[n+]1=O	1.48	2.8			1.8	3.95	1.59	2.94	1.85	3.96	1.66	3.04	1.64	2.99	1.14	2.84
Cc1ccc2c(C(C[N+](=O)[O-])c3cccs3)c(-c3ccccc3)[nH]c2c1 (centres undefined)	1.92	7.29	1.88	8.18	0.984	3.68	2.15	13.3	2.77	11.5	1.28	5.57	2.24	10.5	1.53	> 33.3
O=C(Nc1nc2ccccc2s1)OCC(F)(F)F	> 100	> 100	> 100	> 100	> 100	> 100	> 100	> 100	> 100	> 100	> 100	> 100	> 100	> 100	> 100	> 100
CSc1nc(SC)c2c(CN=[N+]=[N-])c(Br)n(Cc3ccccc3)c2n1		> 100		> 100		> 100		> 100		> 100		> 100		> 100		> 100
CC(C)(C)OC(=O)n1cc(CNC(=S)Nc2ccccc2)c2ccccc21	14.5	32.7	10.7	24.4	10.8	22.7	5.12	19.6	11.4	33.1	17.7	33.3	36.3	> 100	3.88	> 100
C=C1C(O)C2CCC(C)(C)C(=O)C2=C(CC(C)C)C12CC2 (centres undefined)	> 100	> 100	66.7	> 100	45.4	> 100	39.3	> 100	50.5	> 100	80.8	> 100	> 100	> 100	33.1	> 100
N#Cc1c(NC(=O)c2cccc(C(F)(F)F)c2)sc2c1CCC(=O)C2	0.419	2.06	0.379	2.88	1.62	7.77	0.327	0.985	0.91	5.9	0.525	2.22	2.3	6.35	0.35	> 32.2
COc1ccc(/C=C/C=C(/C#N)C(N)=S)cc1	30.1	> 100	28.7	> 100			24.6	49.9	28	> 100	18.8	42.7	25.2	67.7		
C=C1C(=O)O[C@H]2[C@H]1CC/C(CNC(=O)c1c[nH]c3ccc(F)cc13)=C\CC[C@@]1(C)O[C@@H]21	1.19	2.7	1.68	3.8	4.13	19.3	1.04	2.38	1.78	4.45	1.04	2.33	1.42	3.09	1.32	4.53
Brc1cccc(-c2cc(-c3ccc4c(c3)OCCO4)[nH]n2)c1	1.62	47.8	3.46	53.6	0.766	29.8	1.54	33.2	3.11	37.1	0.729	31.1	1.74	69.2	1.09	101
COC1(C(=O)N2Cc3nc(Cl)nc(N[C@H](C)c4cc(N)cc(C(F)(F)F)c4)c3C2)CCOCC1	12.4	28.2	19.7	72.4	24.6	> 94.5	18.5	71.4	13.7	49.1	17.8	40.6	16.7	33.6	9.05	50.5
O=C(c1cccs1)c1c(C(F)(F)F)n([O-])c2ccccc2[n+]1=O	0.908	2.37	0.788	1.73	0.677	1.94	0.417	1.09	0.395	1.16	0.771	1.58	2.21	10.5	2.32	4.19
C[C@@H]1CC[C@H]2C(COCC3=C(C(F)(F)F)O[C@@H]4O[C@@]5(C)CC[C@H]6[C@H](C)CC[C@@H]3[C@@]46OO5)=C(C(F)(F)F)O[C@@H]3O[C@@]4(C)CC[C@@H]1[C@]32OO4			< 0.01	> 100	0.543	> 100	0.028	> 100							< 0.0233	> 100
O=C(Nc1cccc(-n2ccc3c(NC(=O)c4ccccc4)nccc32)c1)c1cccc(C(F)(F)F)c1	0.127	1.3	0.0685	> 46.2	0.0327	> 100	0.0782	12.5	0.0709	12.4			0.0547	14.3	0.168	> 100
CC(=O)c1ccc(Nc2cc(-c3ccccc3)nc3c(O)cccc23)cc1	28.7	> 100	12.5	64.7	5.53	34.9	20.5	74.1			4.58	33.9	13.2	40.4		

Reference: PubChem BioAssay (NCI)
